Reference: the NIST ThermoML archive (doi:10.1016/j.fluid.2014.12.001)
Numbers after ± are expanded uncertainties.

Tests used:
[1] = Molar enthalpy of transition or fusion; conditions: Crystal; DSC
[2] = Crystal; visual observation

SMILES | Molar enthalpy of transition or fusion [1] [kcal/mol] | Normal melting temperature [2] [°C]
Nc1ccccc1[N+](=O)[O-] [2-nitroaniline] | 4.6 ± 0.21 | 69.7 ± 1.1
Oc1cccc2ccccc12 [1-naphthol] | 5.2 ± 0.237 | 95.10 ± 1.1
